Experimental data published in patent US7482348B2, “Piperazinyl substituted cyclohexane-1,4-diamines” (Janssen Pharmaceutica N.V., priority 2005, dated 2009).
pKi: −log10 of the molar value.

Experiments:
α1a-AR = biological target: T1, α1a-AR (Homo sapiens, UniProt P35348); test: α1-Adrenergic receptor radio-ligand (125I-HEAT) binding assay, α1a subtype; conditions: membranes of transfected COS-7 cells, 125I-HEAT 50 pM
T1 construct: expressed in transfected cells; host or cells: COS-7 (African green monkey kidney) membranes
T1 sequence (P35348 1-455 isoform P35348-4): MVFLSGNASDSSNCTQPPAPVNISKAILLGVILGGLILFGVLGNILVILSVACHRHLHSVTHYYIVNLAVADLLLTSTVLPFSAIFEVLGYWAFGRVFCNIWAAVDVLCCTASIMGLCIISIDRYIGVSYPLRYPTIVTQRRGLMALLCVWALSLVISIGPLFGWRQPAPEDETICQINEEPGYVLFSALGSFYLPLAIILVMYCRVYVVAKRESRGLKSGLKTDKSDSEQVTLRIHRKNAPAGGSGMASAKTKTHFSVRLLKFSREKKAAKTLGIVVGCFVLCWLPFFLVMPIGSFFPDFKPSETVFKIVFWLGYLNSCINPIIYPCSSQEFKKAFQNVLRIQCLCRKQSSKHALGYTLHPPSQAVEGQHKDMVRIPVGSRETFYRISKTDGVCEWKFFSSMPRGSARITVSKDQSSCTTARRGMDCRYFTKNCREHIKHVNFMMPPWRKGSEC
Method: (§1) α1-Adrenergic Receptor Binding Assay
(§2) Preparation of COS Cell Membranes
(§3) Membranes were prepared from COS-7 cells (African Green monkey kidney SV40-transformed cells) that had been transfected with one of the three α1-AR subtypes (Genbank accession number for the α1a subtype: AF013261; Genbank accession number for the α1b subtype: NM000679; Genbank accession number for the α1d subtype: NM000678) using the following method: COS cells from ten 100 mm tissue culture plates were scraped into a 5 mL volume of TE (a mixture of 50 mM Tris-HCl, 5 mM EDTA, pH 7.4). The cell suspension was disrupted with a Brinkman Polytron (at a setting of 8) for 10 sec. The disrupted cells were centrifuged at 1000×g for 10 min at 4° C. Supernatants were centrifuged at 34,500×g for 20 min at 4° C. The membrane pellets were suspended in a 2 mL volume of TNE (a mixture of 50 mM Tris-HCl, 5 mM EDTA and 150 mM NaCl at pH 7.4). An aliquot of the membrane suspension was stored at −70° C. until use. The protein concentration was determined using the BioRad “DC” protein assay kit following membrane solubilization with Triton X-100.
(§4) Radio-ligand Binding Assay
(§5) Triplicate determinations of radio-ligand binding in the presence of increasing concentrations of testing compound were made. The reagents were added to 96-well polypropylene plate wells. Each assay well contained 140 μL TNE, 25 μL ^125I-2-(β-4-hydroxyphenyl)ethylaminomethyltetralone (^125I-HEAT) (specific activity 2200 Ci/mmol, Dupont-New England Nuclear, 50 pM final), 10 μL testing compound dissolved in dimethyl sulfoxide (DMSO) (1 pM to 10 μM in half-log increments, final), and 25 μL appropriate α1-AR membrane subtype suspension in TNE (0.5 ng/μL for the α1a and α1b subtypes and 13 ng/μL for the α1d subtype). The plate was incubated at rt for 1 hr. The contents of the wells were filtered through a glass filter (type C) (GF/C) membrane Unifilter plate (Packard Instruments) using the Packard Filtermate cell harvester. The filter plates were dried in a vacuum oven for 30 min at 40° C. 25 μL Microscint 20 liquid scintillation fluid (Packard Instuments) was added to each well. The radioactive content was analyzed in the TopCount microplate scintillation counter (Packard Instruments).
(§6) The Ki values (in nM) shown in Table 1 were determined using GraphPad Prism software.

α1b-AR = biological target: T2, α1b-AR (Homo sapiens, UniProt P35368); test: α1-Adrenergic receptor radio-ligand (125I-HEAT) binding assay, α1b subtype; conditions: membranes of transfected COS-7 cells, 125I-HEAT 50 pM
T2 construct: expressed in transfected cells; host or cells: COS-7 (African green monkey kidney) membranes
T2 sequence (P35368 1-520): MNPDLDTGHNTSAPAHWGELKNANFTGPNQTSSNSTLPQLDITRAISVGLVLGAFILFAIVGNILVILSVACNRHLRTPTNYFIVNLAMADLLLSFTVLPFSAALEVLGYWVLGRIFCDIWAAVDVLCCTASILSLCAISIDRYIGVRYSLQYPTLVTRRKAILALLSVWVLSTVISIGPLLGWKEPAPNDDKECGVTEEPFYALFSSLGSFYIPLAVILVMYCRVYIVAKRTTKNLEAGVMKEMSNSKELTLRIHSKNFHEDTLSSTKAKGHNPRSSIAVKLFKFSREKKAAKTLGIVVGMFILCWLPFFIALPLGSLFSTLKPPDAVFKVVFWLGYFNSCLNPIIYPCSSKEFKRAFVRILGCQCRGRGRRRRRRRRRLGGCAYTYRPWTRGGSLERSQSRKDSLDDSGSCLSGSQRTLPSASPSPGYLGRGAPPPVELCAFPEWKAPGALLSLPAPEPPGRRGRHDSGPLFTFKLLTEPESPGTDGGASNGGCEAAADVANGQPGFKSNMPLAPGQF
Method: as §1, §2, §3, §4, §5, §6

α1d-AR = biological target: T3, α1d-AR (Homo sapiens, UniProt P25100); test: α1-Adrenergic receptor radio-ligand (125I-HEAT) binding assay, α1d subtype; conditions: membranes of transfected COS-7 cells, 125I-HEAT 50 pM
T3 construct: expressed in transfected cells; host or cells: COS-7 (African green monkey kidney) membranes
T3 sequence (P25100 1-572): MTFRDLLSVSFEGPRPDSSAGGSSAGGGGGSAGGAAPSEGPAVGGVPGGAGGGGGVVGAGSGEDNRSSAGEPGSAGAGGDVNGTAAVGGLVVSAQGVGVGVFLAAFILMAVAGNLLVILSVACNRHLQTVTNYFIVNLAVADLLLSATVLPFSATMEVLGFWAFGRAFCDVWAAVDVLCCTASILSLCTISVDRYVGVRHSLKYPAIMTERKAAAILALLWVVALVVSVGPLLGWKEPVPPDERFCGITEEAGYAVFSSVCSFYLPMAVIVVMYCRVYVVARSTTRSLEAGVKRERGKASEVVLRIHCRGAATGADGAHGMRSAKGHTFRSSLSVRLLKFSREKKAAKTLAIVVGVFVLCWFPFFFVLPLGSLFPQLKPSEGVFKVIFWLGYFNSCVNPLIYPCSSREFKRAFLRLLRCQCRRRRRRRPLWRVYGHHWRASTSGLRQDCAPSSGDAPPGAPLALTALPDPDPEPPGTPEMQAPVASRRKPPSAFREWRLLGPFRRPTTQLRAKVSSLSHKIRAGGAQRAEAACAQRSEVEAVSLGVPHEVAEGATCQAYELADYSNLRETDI
Method: as §1, §2, §3, §4, §5, §6

[1] = tested on: α1a and α1d subtypes over the α1b subtype; conditions: cited from earlier work

| Compound | pKi (α1a-AR) | pKi (α1b-AR) | pKi (α1d-AR) | selectivity for the α1a and α1d subtypes over the α1b subtype [1] |
| --- | --- | --- | --- | --- |
| COc1ccc(Cl)cc1S(=O)(=O)N[C@H]1CC[C@@H](N2CCN(c3ncccc3OC(C)C)CC2)CC1 [Cpd 5, 5-chloro-N-cis-{4-[4-(3-isopropoxy-pyridin-2-yl)-piperazin-1-yl]-cyclohexyl}-2-methoxy-benzenesulfonamide] | 7.97 | 6.40 | 7.91 | – |
| O=S(=O)(N[C@H]1CC[C@@H](N2CCN(c3ncccc3OCC3CC3)CC2)CC1)c1cc(Cl)ccc1F [Cpd 11, 5-chloro-N-cis-{4-[4-(3-cyclopropylmethoxy-pyridin-2-yl)-piperazin-1-yl]-cyclohexyl}-2-fluoro-benzenesulfonamide] | 7.45 | 6.02 | 7.36 | – |
| CCOc1ccccc1OCCN[C@H](C)Cc1ccc(OC)c(S(N)(=O)=O)c1 [Tamsulosin] | – | – | – | about 15 fold |
| COc1ccc(S(=O)(=O)N[C@H]2CC[C@@H](N3CCN(c4ncccc4OC(C)C)CC3)CC2)cc1OC [Cpd 3, N-cis-{4-[4-(3-isopropoxy-pyridin-2-yl)-piperazin-1-yl]-cyclohexyl}-3,4-dimethoxy-benzenesulfonamide] | 7.21 | 6.95 | 7.72 | – |

The remaining compounds from weak to strong by pKi (α1a-AR), led by results:

| pKi (α1a-AR) | pKi (α1b-AR) | pKi (α1d-AR) | Compound | selectivity for the α1a and α1d subtypes over the α1b subtype [1] |
| --- | --- | --- | --- | --- |
| 6.72 | 6.44 | 7.19 | COc1ccc(S(=O)(=O)N[C@H]2CC[C@@H](N3CCN(c4ncccc4OCC4CC4)CC3)CC2)cc1OC [Cpd 1, N-cis-{4-[4-(3-cyclopropylmethoxy-pyridin-2-yl)-piperazin-1-yl]-cyclohexyl}-3,4-dimethoxy-benzenesulfonamide] | – |
| 7.35 | 5.73 | 7.82 | CC(C)Oc1cccnc1N1CCN([C@H]2CC[C@@H](NS(=O)(=O)c3cc(Cl)ccc3F)CC2)CC1 [Cpd 7, 5-chloro-2-fluoro-N-cis-{4-[4-(3-isopropoxy-pyridin-2-yl)-piperazin-1-yl]-cyclohexyl}-benzenesulfonamide] | – |
| 7.73 | 6.22 | 7.32 | COc1ccc(Cl)cc1S(=O)(=O)N[C@H]1CC[C@@H](N2CCN(c3ncccc3OCC3CC3)CC2)CC1 [Cpd 9, 5-chloro-N-cis-{4-[4-(3-cyclopropylmethoxy-pyridin-2-yl)-piperazin-1-yl]-cyclohexyl}-2-methoxy-benzenesulfonamide] | – |
